Where two headings read alike, the source gives them in different places.
Legend:
[1] = target: PDK1 (Homo sapiens (Human), UniProt O15530); test: PDK1 kinase assay (coupled PDK1/AKT/FAM-crosstide assay, IMAP fluorescence polarization); type: biochemical; settings: inhibition of phospo-PDK1 in vitro
How it was run: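 Coupled cascade: 0.75 nM PDK1 (51-359) → 10 nM AKT2 (140-467-PIFtide) → 100 nM FAM-crosstide. ATP 40 μM, 25° C, 30 min. IMAP FP (ex 485/em 530), 2 h binding. ΔmP vs conc, 4-param fit.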

[2] = test system: phospho-akt (Thr308) in PC-3 cells; test: Inhibition of phospho-akt (Thr308) in PC-3 cells, MSD phospho-akt 308 ELISA kit; type: cell-based; settings: inhibition of P308 Akt in PC-3 cells, 2 hours, no serum, MSD, read-out: EC50
How it was run: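 PC-3 cells were seeded overnight in growth medium with 10% FBS, then exposed to compound serially diluted threefold in serum-free medium for 2 hours. Lysates were captured overnight at 4 degrees on MSD plates and phospho-Akt Thr308 was detected electrochemiluminescently, against DMSO high and 5 μM wortmannin low controls.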

PDK1, sequence (O15530 51-359): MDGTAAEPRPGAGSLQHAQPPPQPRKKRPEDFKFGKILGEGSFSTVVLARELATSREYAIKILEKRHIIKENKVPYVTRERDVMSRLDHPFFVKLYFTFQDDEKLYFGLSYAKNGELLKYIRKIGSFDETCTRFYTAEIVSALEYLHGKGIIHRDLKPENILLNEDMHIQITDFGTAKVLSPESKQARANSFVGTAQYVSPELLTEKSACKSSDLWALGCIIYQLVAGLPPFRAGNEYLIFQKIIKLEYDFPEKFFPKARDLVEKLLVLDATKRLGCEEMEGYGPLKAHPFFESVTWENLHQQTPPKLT

Row | IC50 [1] [µM] | EC50 ([2]; Homo sapiens) [µM] | EC50 ([2]; Homo sapiens, PC-3, 2 h) [µM] | SMILES | EC50 [2] [µM]
1 | < 0.1 | 1 to 10 | – | C[C@H](NC(=O)c1cc(S(N)(=O)=O)cnc1NCc1ccc(-c2ccc3ncnc(N)c3c2)s1)c1ccc(F)c(F)c1 [Example 8.7.3, 2-({[5-(4-aminoquinazolin-6-yl)thiophen-2-yl]methyl}amino)-N-[(1S)-1-(3,4-difluorophenyl)ethyl]-5-sulfamoylpyridine-3-carboxamide] | –
2 | 0.1 to 1 | – | 1 to 10 | CC(C)NS(=O)(=O)c1cnc(NCc2ccc(-c3ccc4ncnc(N)c4c3)s2)c(C(=O)NCc2ccc(F)c(F)c2)c1 [Example 8.7.9, 2-({[5-(4-aminoquinazolin-6-yl)thiophen-2-yl]methyl}amino)-N-(3,4-difluorobenzyl)-5-(propan-2-ylsulfamoyl) pyridine-3-carboxamide] | –
3 | 0.1 to 1 | < 1 | – | Nc1ncnc2ccc(-c3ccc(CNc4ncc(S(=O)(=O)N5CCOCC5)cc4C(=O)NCc4ccc(F)c(F)c4)s3)cc12 [Example 8.7.12, 2-(((5-(4-aminoquinazolin-6-yl)thiophen-2-yl)methyl)amino)-N-(3,4-difluorobenzyl)-5-(morpholinosulfonyl) nicotinamide] | –
4 | < 0.1 | 1 to 10 | – | Nc1ncnc2ccc(-c3ccc(CNc4nc(C(F)(F)F)ccc4C(=O)NCc4ccc(F)c(F)c4)s3)cc12 [Example 8.12.2, 2-({[5-(4-aminoquinazolin-6-yl)thiophen-2-yl]methyl}amino)-N-(3,4-difluorobenzyl)-6-(trifluoromethyl)pyridine-3-carboxamide] | –
5 | > 5 | 1 to 10 | – | Nc1ncnc2ccc(-c3ccc(CNc4nccc(C(F)(F)F)c4C(=O)NCc4ccc(F)c(F)c4)s3)cc12 [Example 8.12.4, 2-({[5-(4-aminoquinazolin-6-yl)thiophen-2-yl]methyl}amino)-N-(3,4-difluorobenzyl)-4-(trifluoromethyl)pyridine-3-carboxamide] | –
6 | 0.1 to 1 | < 1 | – | C[C@H](NC(=O)c1cc(C(F)(F)F)cnc1NCc1ccc(-c2cc3c(N)ncnc3cn2)s1)c1ccc(F)cc1 [Example 8.12.7, 2-({[5-(4-aminopyrido [3,4-d]pyrimidin-6-yl)thiophen-2-yl]methyl}amino)-N-[(1S)-1-(4-fluorophenyl)ethyl]-5-(trifluoromethyl) pyridine-3-carboxamide] | –
7 | > 5 | 1 to 10 | – | Cn1cnc2cnc(-c3ccc(CNc4ncccc4C(=O)NCc4ccc(F)c(F)c4)s3)cc21 [Example 8.14.3, N-(3,4-difluorobenzyl)-2-({[5-(1-methyl-1H-imidazo [4,5-c]pyridin-6-yl)thiophen-2-yl]methyl}amino)pyridine-3-carboxamide] | –
8 | 1 to 5 | > 10 | – | O=C(NCc1ccc(F)c(F)c1)c1cccnc1NCc1ccc(-c2ccn3ncnc3c2)s1 [Example 8.14.4, N-(3,4-difluorobenzyl)-2-({[5-([1,2,4]triazolo [1,5-a]pyridin-7-yl)thiophen-2-yl]methyl}amino)pyridine-3-carboxamide] | –

Continued, molecule first:

Row | SMILES | IC50 [1] [µM] | EC50 ([2]; Homo sapiens) [µM] | EC50 ([2]; Homo sapiens, PC-3, 2 h) [µM] | EC50 [2] [µM]
9 | CNS(=O)(=O)c1cnc(NCc2ccc(-c3ccc4ncnc(N)c4c3)s2)c(C(=O)N[C@@H](C)c2ccc(F)c(F)c2)c1 [Example 8.7.4, 2-({[5-(4-aminoquinazolin-6-yl)thiophen-2-yl]methyl}amino)-N-[(1S)-1-(3,4-difluorophenyl)ethyl]-5-(methylsulfamoyl) pyridine-3-carboxamide] | < 0.1 | < 1 | – | –
10 | CN(C)S(=O)(=O)c1cnc(NCc2ccc(-c3ccc4ncnc(N)c4c3)s2)c(C(=O)NCc2ccc(F)c(F)c2)c1 [Example 8.7.5] | < 0.1 | < 1 | – | –
11 | C[C@H](NC(=O)c1cc(S(=O)(=O)N(C)C)cnc1NCc1ccc(-c2ccc3ncnc(N)c3c2)s1)c1ccc(F)c(F)c1 [Example 8.7.6, 2-({[5-(4-aminoquinazolin-6-yl)thiophen-2-yl]methyl}amino)-N-[(1S)-1-(3,4-difluorophenyl)ethyl]-5-(dimethylsulfamoyl) pyridine-3-carboxamide] | < 0.1 | – | – | < 1
12 | CNS(=O)(=O)c1cnc(NCc2ccc(-c3ccc4ncnc(N)c4c3)s2)c(C(=O)N[C@@H](C)c2ccc(F)cc2)c1 [Example 8.7.7, 2-({[5-(4-aminoquinazolin-6-yl)thiophen-2-yl]methyl}amino)-N-[(1S)-1-(4-fluorophenyl)ethyl]-5-(methylsulfamoyl) pyridine-3-carboxamide] | 0.1 to 1 | 1 to 10 | – | –
13 | CS(=O)(=O)c1cnc(NCc2ccc(-c3ccc4ncnc(N)c4c3)s2)c(C(=O)NCc2ccc(F)c(F)c2)c1 [Example 8.7.8] | 0.1 to 1 | < 1 | – | –
14 | CCC(C)NS(=O)(=O)c1cnc(NCc2ccc(-c3ccc4ncnc(N)c4c3)s2)c(C(=O)NCc2ccc(F)c(F)c2)c1 (stereo not shown) [Example 8.7.10, 2-({[5-(4-aminoquinazolin-6-yl)thiophen-2-yl]methyl}amino)-5-(butan-2-ylsulfamoyl)-N-(3,4-difluorobenzyl)pyridine-3-carboxamide] | 0.1 to 1 | 1 to 10 | – | –
15 | CCNS(=O)(=O)c1cnc(NCc2ccc(-c3ccc4ncnc(N)c4c3)s2)c(C(=O)NCc2ccc(F)c(F)c2)c1 [Example 8.7.11, 2-({[5-(4-aminoquinazolin-6-yl)thiophen-2-yl]methyl}amino)-N-(3,4-difluorobenzyl)-5-(ethylsulfamoyl)pyridine-3-carboxamide] | 0.1 to 1 | < 1 | – | –
16 | Nc1ncnc2ccc(-c3ccc(CNc4ncc(S(=O)(=O)NCc5cccnc5)cc4C(=O)NCc4ccc(F)c(F)c4)s3)cc12 [Example 8.7.13, 2-(((5-(4-aminoquinazolin-6-yl)thiophen-2-yl)methyl)amino)-N-(3,4-difluorobenzyl)-5-(N-(pyridin-3-ylmethyl)sulfamoyl)nicotinamide] | 0.1 to 1 | 1 to 10 | – | –
17 | C[C@H](NC(=O)c1cc(C#N)cnc1NCc1ccc(-c2ccc3ncnc(N)c3c2)s1)c1ccc(F)c(F)c1 [Example 8.8.2] | < 0.1 | < 1 | – | –
18 | C[C@H](NC(=O)c1cc(C#N)cnc1NCc1ccc(-c2ccc3ncnc(N)c3c2)s1)c1ccc(F)cc1 [Example 8.8.3, 2-({[5-(4-aminoquinazolin-6-yl)thiophen-2-yl]methyl}amino)-5-cyano-N-[(1S)-1-(4-fluorophenyl)ethyl] pyridine-3-carboxamide] | < 0.1 | < 1 | – | –
19 | Nc1ncnc2ccc(-c3ccc(CNc4ncc(Cl)cc4C(=O)NCc4ccc(F)c(F)c4)s3)cc12 [Example 8.12.3, 2-({[5-(4-aminoquinazolin-6-yl)thiophen-2-yl]methyl}amino)-5-chloro-N-(3,4-difluorobenzyl)pyridine-3-carboxamide] | 1 to 5 | 1 to 10 | – | –
20 | C[C@H](NC(=O)c1cc(C(F)(F)F)cnc1NCc1ccc(-c2ccc3ncnc(N)c3c2)s1)c1ccc(F)cc1 [Example 8.12.5, 2-({[5-(4-aminoquinazolin-6-yl)thiophen-2-yl]methyl}amino)-N-[(1S)-1-(4-fluorophenyl)ethyl]-5-(trifluoromethyl)pyridine-3-carboxamide] | < 0.1 | 1 to 10 | – | –
21 | C[C@H](NC(=O)c1cc(C(F)(F)F)cnc1NCc1ccc(-c2ccc3ncnc(N)c3c2)s1)c1ccc(F)c(F)c1 [Example 8.12.6, 2-({[5-(4-aminoquinazolin-6-yl)thiophen-2-yl]methyl}amino)-N-[(1S)-1-(3,4-difluorophenyl)ethyl]-5-(trifluoromethyl)pyridine-3-carboxamide] | < 0.1 | < 1 | – | –
22 | C[C@H](NC(=O)c1cc(C(F)(F)F)cnc1NCc1ccc(-c2cc3c(N)ncnc3cn2)s1)c1ccc(F)c(F)c1 [Example 8.12.8, 2-({[5-(4-aminopyrido [3,4-d]pyrimidin-6-yl)thiophen-2-yl]methyl}amino)-N-[(1S)-1-(3,4-difluorophenyl)ethyl]-5-(trifluoromethyl) pyridine-3-carboxamide] | 0.1 to 1 | 1 to 10 | – | –
23 | Cn1cnc2cnc(-c3ccc(CNc4nc5ccccc5cc4C(=O)NCc4ccc(F)c(F)c4)s3)cc21 [Example 8.14.2, N-(3,4-difluorobenzyl)-2-({[5-(1-methyl-1H-imidazo [4,5-c]pyridin-6-yl)thiophen-2-yl]methyl}amino)quinoline-3-carboxamide] | > 5 | > 10 | – | –
24 | Cn1cnc2cnc(-c3ccc(CNc4nc5c(cc4C(=O)NCc4ccc(F)c(F)c4)CCC5)s3)cc21 [Example 8.15.2, N-(3,4-difluorobenzyl)-2-({[5-(1-methyl-1H-imidazo[4,5-c]pyridin-6-yl)thiophen-2-yl]methyl}amino)-6,7-dihydro-5H-cyclopenta[b] pyridine-3-carboxamide] | > 5 | > 10 | – | –
25 | C[C@H](NC(=O)c1cccnc1NCc1cn(-c2ccc3[nH]c(=O)[nH]c3c2)nn1)c1ccc(F)c(F)c1 [Example 9.2, (S)-N-(1-(3,4-difluorophenyl)ethyl)-2-(((1-(2-oxo-2,3-dihydro-1H-benzo[d]imidazol-5-yl)-1H-1,2,3-triazol-4-yl)methyl)amino) nicotinamide] | > 5 | > 10 | – | –
26 | Nc1ncnc2ccc(-c3ccc(CNc4ncc(C(F)(F)F)nc4C(=O)NCc4ccc(F)c(F)c4)s3)cc12 [Example 10.10, 3-(((5-(4-aminoquinazolin-6-yl)thiophen-2-yl)methyl)amino)-N-(3,4-difluorobenzyl)-6-(trifluoromethyl)pyrazine-2-carboxamide] | < 0.1 | > 10 | – | –

— patent publication US10030016B2 (Sunesis Pharmaceuticals, Inc., priority 2009, dated 2018)
